Source: ChEMBL document CHEMBL1201862, “PubChem BioAssay data set” (2004)
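Dose response: 5 concentrations. Exposure: 48 h. Format: 96-well plates. Endpoint: linear interpolation; highest concentration if not reached. Abbreviation: GI50, concentration required for 50% inhibition of growth.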 The source made the active and inactive calls. Cut-off read from the data, not from the text of the source: active = GI50 up to about 1.1 µM and inactive = higher.

Key:
Test in all cases: NCI-60 cell line screen, 48 h
[1] = test system: A498
[2] = test system: ACHN
[3] = test system: COLO 205
[4] = test system: HCT-116
[5] = test system: HCT-15
[6] = test system: HL-60
[7] = test system: HOP-62
[8] = test system: IGROV-1
[9] = test system: MOLT-4
[10] = test system: NCI-H226
[11] = test system: NCI-H522
[12] = test system: RXF 393
[13] = test system: SF-295
[14] = test system: SF-539
[15] = test system: SK-MEL-5
[16] = test system: SN12C
[17] = test system: SNB-75
[18] = test system: SR
[19] = test system: UACC-257
[20] = test system: UACC-62

Row | Structure (SMILES) | GI50 [1] | GI50 [2] | GI50 [3] | GI50 [4] | GI50 [5] [µM] | GI50 [6] | GI50 [7] | GI50 [8] | GI50 [9] | GI50 [10] | GI50 [11] | GI50 [12] | GI50 [13] | GI50 [14] | GI50 [15] | GI50 [16] | GI50 [17] | GI50 [18] | GI50 [19] | GI50 [20]
1 | COc1cccc(CC(C)N)c1 (stereo not given) | > 100 µM (inactive) | > 100 µM (inactive) | > 100 µM (inactive) | > 100 µM (inactive) | > 100 | > 100 µM (inactive) | > 100 µM (inactive) | > 100 µM (inactive) | > 100 µM (inactive) | > 100 µM (inactive) | > 100 µM (inactive) | > 100 µM (inactive) | > 100 µM (inactive) | > 100 µM (inactive) | > 100 µM (inactive) | > 100 µM (inactive) | > 100 µM (inactive) | > 100 µM (inactive) | > 100 µM (inactive) | > 100 µM (inactive)
2 | NN/C(=N\S(=O)(=O)c1cccc2nsnc12)Nc1ccc(Cl)cc1 | > 100 µM (inactive) | > 100 µM (inactive) | > 100 µM (inactive) | > 100 µM (inactive) | > 100 | 9.98 µM (inactive) | > 100 µM (inactive) | > 100 µM (inactive) | 61 µM (inactive) | > 100 µM (inactive) | – | > 100 µM (inactive) | > 100 µM (inactive) | > 100 µM (inactive) | > 100 µM (inactive) | > 100 µM (inactive) | 65.9 µM (inactive) | > 100 µM (inactive) | > 100 µM (inactive) | > 100 µM (inactive)
3 | O=[N+]([O-])C(/C=C(\Cl)[N+](=O)[O-])=C1Nc2ccccc2N1 | 24.8 µM (inactive) | 44.4 µM (inactive) | 30.5 µM (inactive) | 50.1 µM (inactive) | 59.4 | 45.8 µM (inactive) | > 100 µM (inactive) | 64.7 µM (inactive) | 37.1 µM (inactive) | 43.3 µM (inactive) | > 100 µM (inactive) | 38.1 µM (inactive) | 35.4 µM (inactive) | 35.5 µM (inactive) | 70.8 µM (inactive) | 39.7 µM (inactive) | 17.3 µM (inactive) | 29.6 µM (inactive) | 33.3 µM (inactive) | 33.4 µM (inactive)
4 | c1cc2nnc1SCCCSc1ccc(nn1)SCCCS2 | 97.7 µM (inactive) | > 43.7 µM (inactive) | > 47 µM (inactive) | 17.6 µM (inactive) | – | > 19.9 µM (inactive) | 16 µM (inactive) | > 36.7 µM (inactive) | > 20.8 µM (inactive) | 24.7 µM (inactive) | > 100 µM (inactive) | 12.9 µM (inactive) | 20.5 µM (inactive) | 23.5 µM (inactive) | 29.1 µM (inactive) | > 35.8 µM (inactive) | 25.1 µM (inactive) | > 26 µM (inactive) | > 39.9 µM (inactive) | > 25.8 µM (inactive)
5 | CN(C)CCNC(=O)c1ccc(NCCCN(C)CCCNc2ccc(C(=O)NCCN(C)C)c3nc4ccccc4c(O)c23)c2c(O)c3ccccc3nc12 | 0.13 µM (active) | 0.0466 µM (active) | < 0.0109 µM (active) | < 0.01 µM (active) | 0.486 | < 0.0229 µM (active) | < 0.01 µM (active) | < 0.01 µM (active) | < 0.01 µM (active) | < 0.0317 µM (active) | < 0.01 µM (active) | 0.146 µM (active) | 0.0442 µM (active) | 0.274 µM (active) | 0.158 µM (active) | < 0.01 µM (active) | < 0.01 µM (active) | < 0.01 µM (active) | 0.185 µM (active) | 0.0525 µM (active)
6 | CN(O)C(=O)CCCC(=O)NCC(C)(C)CNC(=O)CCCC(=O)N(C)O | > 100 µM (inactive) | > 100 µM (inactive) | > 100 µM (inactive) | – | > 100 | > 100 µM (inactive) | > 100 µM (inactive) | > 100 µM (inactive) | > 100 µM (inactive) | > 100 µM (inactive) | – | > 100 µM (inactive) | > 100 µM (inactive) | > 100 µM (inactive) | > 100 µM (inactive) | – | > 100 µM (inactive) | > 100 µM (inactive) | > 100 µM (inactive) | > 100 µM (inactive)
7 | COc1c(Cl)cc(Cl)cc1S(=O)O | > 100 µM (inactive) | > 100 µM (inactive) | – | > 100 µM (inactive) | – | > 100 µM (inactive) | > 100 µM (inactive) | – | > 100 µM (inactive) | – | > 100 µM (inactive) | > 100 µM (inactive) | – | > 100 µM (inactive) | – | > 100 µM (inactive) | > 100 µM (inactive) | > 100 µM (inactive) | > 100 µM (inactive) | > 100 µM (inactive)
8 | CC(=O)O[C@@H]1C2=C(C3=C([O-])C4=CC=CC(=O)C4C(=O)C3=C2[N+]#N)[C@H](OC(C)=O)[C@@H](OC(C)=O)[C@]1(C)O (stereo not given in full) | 0.923 µM (active) | 0.141 µM (active) | – | 0.1 µM (active) | 0.119 | 0.105 µM (active) | 0.711 µM (active) | 0.347 µM (active) | 0.0959 µM (active) | 0.537 µM (active) | 0.173 µM (active) | 0.565 µM (active) | 0.385 µM (active) | 0.508 µM (active) | 0.506 µM (active) | – | 0.186 µM (active) | 0.101 µM (active) | 0.719 µM (active) | 0.661 µM (active)
9 | CSCCC(N)P(C)(=O)O (stereo not given) | > 100 µM (inactive) | > 100 µM (inactive) | > 100 µM (inactive) | > 100 µM (inactive) | > 100 | > 100 µM (inactive) | > 100 µM (inactive) | > 100 µM (inactive) | > 100 µM (inactive) | > 100 µM (inactive) | > 100 µM (inactive) | > 100 µM (inactive) | > 100 µM (inactive) | > 100 µM (inactive) | > 100 µM (inactive) | > 100 µM (inactive) | > 100 µM (inactive) | > 100 µM (inactive) | > 100 µM (inactive) | > 100 µM (inactive)
10 | CC1CC(NC2CCCCC2)=Nc2ccccc2N1Cc1ccccc1 (stereo not given) | 2.05 µM (inactive) | 10.4 µM (inactive) | 4.35 µM (inactive) | 4.71 µM (inactive) | 5.33 | 4.51 µM (inactive) | 7.03 µM (inactive) | 1.91 µM (inactive) | 3.55 µM (inactive) | 12.7 µM (inactive) | 3.03 µM (inactive) | 2.36 µM (inactive) | 6.03 µM (inactive) | 5.62 µM (inactive) | 2.43 µM (inactive) | 7.85 µM (inactive) | 0.417 µM (active) | 2.64 µM (inactive) | 3.45 µM (inactive) | 1.79 µM (inactive)
11 | C=CCN1C(=O)/C(=C/c2ccc(OC)cc2)NC1=S | 60.4 µM (inactive) | > 100 µM (inactive) | > 100 µM (inactive) | 48 µM (inactive) | > 100 | 0.0355 µM (active) | > 100 µM (inactive) | > 100 µM (inactive) | 4.59 µM (inactive) | 37.9 µM (inactive) | 41.6 µM (inactive) | 37.2 µM (inactive) | 54.2 µM (inactive) | > 100 µM (inactive) | 30.5 µM (inactive) | > 100 µM (inactive) | > 100 µM (inactive) | 29.3 µM (inactive) | 27.9 µM (inactive) | 97.7 µM (inactive)
12 | O=P(CCOc1ccccc1OCCP(=O)(c1ccccc1)c1ccc2c(c1)OCCOCCOCCOCCO2)(c1ccccc1)c1ccc2c(c1)OCCOCCOCCOCCO2 (stereo not given) | > 100 µM (inactive) | > 100 µM (inactive) | > 100 µM (inactive) | > 100 µM (inactive) | > 100 | > 100 µM (inactive) | > 100 µM (inactive) | > 100 µM (inactive) | > 100 µM (inactive) | > 100 µM (inactive) | > 100 µM (inactive) | > 100 µM (inactive) | > 100 µM (inactive) | > 100 µM (inactive) | > 100 µM (inactive) | > 100 µM (inactive) | > 100 µM (inactive) | > 100 µM (inactive) | > 100 µM (inactive) | > 100 µM (inactive)
13 | CC(Oc1ccccc1Cl)C(=O)NN1C(=O)CSC1c1ccc(Cl)cc1 (stereo not given) | 19.8 µM (inactive) | 27.2 µM (inactive) | 19.6 µM (inactive) | 14.5 µM (inactive) | 19.5 | 7.64 µM (inactive) | 17.4 µM (inactive) | 20.7 µM (inactive) | – | 18.2 µM (inactive) | 16 µM (inactive) | 17.3 µM (inactive) | 18.5 µM (inactive) | 24.8 µM (inactive) | 17.6 µM (inactive) | 14.8 µM (inactive) | 22.9 µM (inactive) | < 0.01 µM (active) | 23.6 µM (inactive) | 17.8 µM (inactive)
14 | CON(C)C(=O)C(Cc1ccccc1)NC(=O)OCc1ccccc1 (stereo not given) | > 100 µM (inactive) | > 100 µM (inactive) | > 100 µM (inactive) | > 100 µM (inactive) | > 100 | > 100 µM (inactive) | > 100 µM (inactive) | > 100 µM (inactive) | > 100 µM (inactive) | – | 58.6 µM (inactive) | > 100 µM (inactive) | > 100 µM (inactive) | > 100 µM (inactive) | 97.7 µM (inactive) | > 100 µM (inactive) | 33.3 µM (inactive) | > 100 µM (inactive) | 86.1 µM (inactive) | > 100 µM (inactive)
